Laboratory results from US10539552B2, “Compositions and methods for measuring cellular mechanical stress” (The Regents of the University of California, priority 2014, dated 2020).
Entries after “also recorded” stand apart in the source; their conditions may differ.

Assays:
CaMKII [1] = assay: In vitro CaMKII activity measurement with Camui FRET sensor in HEK cell lysates; assay type: biochemical; conditions: Camui lacking phosphorylation (T286) or oxidation (CM280/281) sites
Experimental: (§1) In Vitro CaMKII activity measurements with Camui sensor. Design and synthesis of the wild-type, phosphorylation resistant, and oxidation resistant Camui constructs were previously described. HEK293 cells were cultured in Eagle's medium plus 5% fetal bovine serum and penicillin/streptomycin for 24 hour and then transfected with plasmids encoding Camui (or a mutant isoform) using a mammalian transfection kit (Stratagene). After an additional 24 hour, Camui expression was checked by fluorescence microscopy. HEK cells expressing Camui were lysed in Ca^2+-free buffer containing 50 mM Tris-HCl buffer (pH 7.5), 5 mM MgCl2, and protease inhibitors. Fluorescence measurements were performed using a MS SpectraMax plate reading spectrophotometer (Molecular Devices) with excitation and emission slits set to 4 nm, excitation wavelength set to 440 nm, emission wavelengths set to 477 nm (FCFP) and 527 nm (FYFP), respectively. The cytosolic fraction of the transfected HEK cells […] Camui fluorescence was measured in the presence of 10 μM CaM and 200 μM Ca^2+. EGTA 1 mM was used to chelate Ca^2+ and autonomous CaMKII activity was measured in the presence of 1 mM EGTA and either 50 μM or 500 μM SNAP.
(§2) CaMKII activity was known to be increased by auto-phosphorylation and by oxidation. Here we measure the effect of nitric oxide (NO) on CaMKII activity using the FRET-based biosensor Camui which detects conformational changes in CaMKII during activation. To determine whether NO can activate CaMKII, we expressed the CaMKII activity sensor Camui in HEK cells and measured autonomous activation induced by the NO donor SNAP. Camui comprises of full length CaMKII with a CFP/YFP pair on either end of the kinase, which produce substantial FRET in the closed (autoinhibited) state. If autoinhibition is disrupted, either directly by Ca^2+/CaM binding or autonomously by post-translational modification of the kinase, FRET is reduced, resulting in an increase in FCFP/FYFP. […] CaMKII is known to be autonomously activated by T286 phosphorylation and by CM280/281 oxidation. To test whether one or both of these mechanisms were responsible for SNAP-induced CaMKII activation, we repeated the HEK cell experiment using mutant versions of Camui lacking either the phosphorylation (T286) or oxidation (CM280/281) target sites. In both cases, SNAP dependent activation of CaMKII was preserved.

CaMKII [2] = target: T1, CaMKII (Rattus norvegicus, UniProt P11275); assay: as above; assay type: biochemical
T1 construct: Camui comprises of full length CaMKII with a CFP/YFP pair on either end of the kinase; expressed in transfected cells; host or cells: HEK293 (lysate, cytosolic fraction)
T1 sequence (P11275 whole entry): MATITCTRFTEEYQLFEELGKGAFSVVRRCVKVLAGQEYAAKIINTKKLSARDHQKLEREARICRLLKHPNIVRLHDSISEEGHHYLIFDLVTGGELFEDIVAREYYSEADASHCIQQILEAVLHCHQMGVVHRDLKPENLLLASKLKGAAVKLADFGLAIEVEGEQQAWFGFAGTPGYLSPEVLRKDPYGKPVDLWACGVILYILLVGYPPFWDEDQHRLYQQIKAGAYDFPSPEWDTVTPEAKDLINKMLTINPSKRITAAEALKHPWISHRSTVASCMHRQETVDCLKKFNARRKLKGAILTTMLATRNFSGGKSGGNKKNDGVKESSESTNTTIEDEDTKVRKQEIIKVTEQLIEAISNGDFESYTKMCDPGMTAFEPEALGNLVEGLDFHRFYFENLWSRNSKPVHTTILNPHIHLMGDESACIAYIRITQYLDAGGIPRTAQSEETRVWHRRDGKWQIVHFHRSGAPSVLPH
Experimental: as §1, §2

[3] = system: mouse ventricular myocytes (wild-type); assay: Cell-in-Gel confocal Ca^2+ spark imaging during myocyte contraction under afterload (wild-type); assay type: cell-based; conditions: wild-type myocytes contracting in Gel7.5%, paced 0.5 Hz, L-NAME 10 mM, L-NPA 5 μM, L-Nio 10 μM, Gp91ds 1 μM, blebbistatin 10 μM
Experimental: Cell isolation. Wild-type and transgenic mice, 8 weeks old male, were purchased from Jackson Laboratories (USA): C57BL/6J (wild-type), B6.129S4-Nos1tm1Plh/J (NOS1−/−), B6.129P2-Nos3tm1Unca/J (NOS3−/−). Transgenic mouse with R92Q mutation in cardiac troponin T was created in Tardiff s lab (22) and bred in Chen-Izu's lab. A standard enzymatic technique (40) was used to isolate the ventricular myocytes using Worthington collagenase type II and Sigma protease type XIV. All experiments were conducted at 21-22° C.
Cell-in-Gel system. Elastic gel matrix was made of a poly vinyl alcohol (PVA) hydrogel system comprised of underivatized PVA (98 KD) and a tetravalent boronate-PEG crosslinker (12). Freshly isolated myocytes were first suspended in 7% PVA solution; then 7.5% crosslinker solution was added in equal volume (Gel7.5%). Upon mixing, the boronate group crosslinks PVA hydrogel, embedding the cell in the 3D gel matrix. The boronate group also crosslinks the cis-diols of the cell-surface glycans to PVA, thereby tethering the cell surface to the gel. We used Gel7.5% for all the experiments in this study except one group in FIG. 11G using Gel5%.
Confocal imaging of Ca^2+ signals. Myocytes were loaded with Ca^2+ indicator, Fluo-4, and then embedded in the gel. Confocal imaging was performed using standard method (41).
For confocal imaging of the Ca^2+ signals, freshly isolated myocytes were continuously perfused in Tyrode solution containing (in mM): 150 NaCl, 5.4 KCl, 1.2MgCl2, 1 CaCl2, at pH 7.4, loaded with Ca^2+ indicator Fluo-4, and then embedded in the PVA gel. The cell was paced at 0.5 Hz frequency by electrical field stimulation using short (4 ms) depolarization pulses with bipolar switching (switch positive and negative polarity in consecutive stimulus pulses). The platinum electrodes were used in conjunction with continues perfusion of fresh Tyrode solution to maintain constant bath condition (pH, glucose, ionic composition, temperature etc.).
Confocal images were obtained using an Olympus FluoView 1000 Confocal Microscope (inverted configuration) with a water immersion fluorescence objective UPlanSApo 60X, NA1.2, corrected for the thickness of the No. 1 glass coverslip that is used at the bottom of the perfusion chamber. Fluo-4 was excited with 488 nm laser beam (laser power set to 5%), and the emitted fluorescence light was passed through a bandpass filter BA505-605 and collected with a PMT. The PMT voltage, gain, and offset were set to avoid any saturation and to obtain high fidelity images. The line-scan images were obtained using the highest scan speed of 2 μs/pixel.
Ca^2+ sparks were detected automatically using a homemade program based on our spark identification algorithm and adapted for x-t linescans. As in our 2-D program, sparks are identified in two stages. In the first stage, putative sparks are detected based on Cheng et al.'s description and bright but spatially small events were eliminated using the ‘live-or-die’ algorithm described in our previous publication. In the second stage, the putative sparks were classified as sparks or noise based on the statistical sieve as described previously in our publication. This analysis software provides automated and objective (agnostic via statistical sieving) detection and classification of the Ca^2+ signaling events. […]

[4] = system: mouse ventricular myocytes; assay: Systolic Ca^2+ transient and myocyte contraction in-Gel (Fluo-4 confocal / Fura-2 ratio, sarcomere detection); assay type: cell-based; conditions: for peak systolic Ca^2+ transient (Fura-2 ratio), inhibitor effect: L-NPA 5 μM; for systolic Ca^2+ transient (Fluo-4 confocal): compared to load-free contraction, blebbistatin 10 μM in gel
Description: Mechanical load effects on the myocyte contraction and systolic Ca^2+ transient. To establish that the diastolic spontaneous Ca^2+ sparks are indeed caused by the mechanical load, we examined the Ca^2+ spark rate in the myocytes contracting under different mechanical loads as shown in FIG. 11G. We also examined the systolic Ca^2+ transient and the myocyte contraction under these conditions of varying loads.
Whole cell Ca^2+ transient measurement using Fura-2 ratiometric method. In order to more precisely measure the whole cell Ca^2+ concentration, we used Fura-2 ratiometric method (40) rather than Fluo-4 single wavelength measurement. Fura-2 loading was done by incubating the cells with 2.5 μM Fura-2/AM and 0.75 μM Pluronic-127 (in 20% DMSO) at room temperature for 30 minutes. After washing out Fura-2/AM, the cells were incubated for an additional 45 minutes, and then used for experiment within 2 hours. An IonOptix system (IonOptix Inc., USA) with a Hyperswitch and mounted on the Olympus X71 inverted microscope with a water immersion fluorescence objective UPlanSPao 40×, 1.15 NA, corrected for the thickness of the No. 1 glass coverslip. The excitation light was generated using a high intensity ARC lamp (Cairn). The Hyperswitch (galvanometer based switching between […] and 380 nm at 500 Hz frequency, using a 340/370d/380 filter cube) was used to deliver dual excitation beams at 340 nm and 380 nm, switching between the two wavelengths. Fura-2 fluorescence emission light was passed through a bandpass filter D510/40m, and then collected in a photomultiplier tube (PMT). The gain of the PMT was set to avoid any saturation and to obtain high fidelity photon count.
The Fura-2 fluorescence emission (F) from the excitation at 340 nm and 380 nm were recorded from the cell. The background fluorescence (BG) at 340 nm and 380 nm wavelengths were obtained in the solution and in the gel without cell. The BG signals were found slightly higher in the gel than in solution, but both were substantially lower than the Fura-2 fluorescence emissions from the cell. The Fura-2 fluorescence ratio, RFura, was calculated after background subtraction.
For measuring the systolic Ca^2+ transient, the cell was first paced to reach steady-state (>2 minutes), and then the Fura-2 fluorescence was recorded for at least 10 beats during steady-state. For SR content measurement, after the cell reaching steady-state the field stimulation was stopped to keep the cell at resting state for 15 seconds; then caffeine at high concentration (20 mM) was applied to rapidly deplete the SR load (FIG. 14A,B). The rapidity of the SR Ca^2+ release was accessed by the rising velocity of the caffeine-induced Ca^2+ transient, and the peak Ca^2+ value was used as an index to measure the SR load. […] Since RyR sensitivity to intra-SR [Ca^2+] is steep, we also acknowledge that small changes in SR Ca^2+ that we could not detect could have functional impact.
Myocyte contraction measurement. Contraction measurement using Fluo-4 confocal image was determined from the confocal x-t linescan by the difference in the positions of the left and right boundaries demarcated by the bright fluo-4 signal and the dimmer signal from the PVA gel or the bathing solution. Myocyte length was calculated by converting the fluorescence signal along each x into a binary vector. Fluorescence values above background plus a threshold were considered 1, otherwise 0. The numbers of “1” pixels was then multiplied by a scaling factor (determined by using a Ronchi ruling with 2.5 spacing) to get the cell shortening in microns. The threshold was set to half of the maximum calcium fluorescence.
Contraction measurement using IonOptix system (IonOptix Co., USA) with sarcomere detection was done by using a high speed camera (Myocam-S, 240 up to 1000 frame/s) the record the sarcomere movement during contraction. […]

[5] = myocytes contracting in-Gel, L-Nio 10 μM

`CC(=O)N[C@@H](C(=O)O)C(C)(C)SN=O` (racemic) [SNAP] was tested, and the “SNAP dependent CaMKII activation in mutant Camui” value (CaMKII [1]) was “preserved; also recorded: not secondary to either phosphorylation (T286A) or oxidation (CM/VV)”, the “autonomous CaMKII activation (FCFP/FYFP)” value (CaMKII [2]; 50 μM SNAP with 1 mM EGTA, compared to EGTA only) was “no effect” and the “autonomous CaMKII activation (FCFP/FYFP)” value (CaMKII [2]; 500 μM SNAP with 1 mM EGTA) was “significant increase in CaMKII activation; also recorded: Autonomous CaMKII activation was seen”. For the same molecule, the “CaMKII activation relative to Ca^2+/CaM dependent activity” value (CaMKII [2]; 500 μM SNAP with EGTA) was “about 50 % of Ca^2+/CaM dependent activity”.
In the case of `COC(=O)[C@@H](N)CCCNC(=N)N[N+](=O)[O-]` [L-NAME], the “afterload-induced diastolic spontaneous Ca^2+ sparks, drug effect” value [3] is reported as “effectively suppressed Ca^2+ sparks”.
`CCCN=C(N)NCCC[C@H](N)C(=O)O.Cl` [L-NPA, Nw-Propyl-L-arginine hydrochloride] was tested, and the “afterload-induced diastolic spontaneous Ca^2+ sparks, drug effect” value [3] was “effectively suppressed Ca^2+ sparks” and the “peak systolic Ca^2+ transient (Fura-2 ratio), inhibitor effect” value [4, 5] was “reduced the Ca^2+ transient”.
`CC(N)=NCCC[C@H](N)C(=O)O.Cl.Cl` [L-Nio, L-Nio-dihydrochloride] was tested, and the “afterload-induced diastolic spontaneous Ca^2+ sparks, drug effect” value [3] was “failed to suppress Ca^2+ sparks”, the “peak systolic Ca^2+ transient (Fura-2 ratio), inhibitor effect” value [4, 5] was “reduced the Ca^2+ transient” and the “Tau of the Ca^2+ transient decline” value [4, 5] was “slowed the speed of Ca^2+ transient decline”.
`Cc1ccc2c(c1)C(=O)C1(O)CCN(c3ccccc3)C1=N2` (stereo not drawn) [blebbistatin] was tested, and the “afterload-induced diastolic spontaneous Ca^2+ sparks, drug effect” value [3] was “restored the Ca^2+ transient and spark rate to the load-free condition”, the “afterload-induced diastolic spontaneous Ca^2+ sparks, drug effect” value ([3]; listed as Blebbistatin) was “normalization of Ca^2+ spark rate” and the “systolic Ca^2+ transient (Fluo-4 confocal)” value [4] was “restored the Ca^2+ transient and spark rate to the load-free condition”. For the same molecule, the “systolic Ca^2+ transient (Fluo-4 confocal)” value ([4]; listed as Blebbistatin) was “restored the Ca^2+ transient to the load-free condition” and the “myocyte contraction amplitude (fractional shortening)” value ([4]; in gel versus load-free, blebbistatin 10 μM) was “decoupled cell contraction from Ca^2+ signaling”.
